Common to all, as to type: biochemical
A short description of test [1]: Active-oxygen eliminating activity of superoxide dismutase and antioxidants in water or trehalose solution before/after storage (NBT test). The following applies: for Activity (unit/mg antioxidant) Before storage: in trehalose solution, trehalose concentration 45%; for Activity (unit/mg antioxidant) After storage: light-shielded. As for the experimental part: (§1) Fresh raw carrots were disrupted by a mixer, and 10% of either of saccharides, d.s.b., was added to the mixture and dissolved therein. The solution was dried under reduced pressures at 40° C. for two days, dried in vacuo at the same temperature for 24 hours, and pulverized by a mixer into a powdery carrot composition. The saccharides used were commercialized reagents of glucose, mannitol, sorbitol, maltose, sucrose, trehalose, and pullulan. An about 100 g of the composition was placed and sealed in a 500-ml polystyrene container, and stored at 40° C. for seven days. The active-oxygen eliminating activity of the composition before and after the storage were compared. The assay for the active-oxygen eliminating activity followed the nitroblue tetrazolium test by Toshio IMANARI et at in Igakuno Ayumi, Vol. 101, pp. 496–497 (1977); the level of superoxide, formed in a xanthine-xanthine oxidase system, was assayed by quantifying calorimetrically the content of formazan formed by reducing NBT. As a control, refined water was used as a test solution. One unit activity of active-oxygen eliminating activity is defined as that inhibits 50% formazan formation as compared with the control. […] The reduction inhibitory activity of trehalose was strongly higher than that of glucose as the constituent saccharide for trehalose, and that of maltose as a disaccharide consisting of two glucose units similar to trehalose. Thus trehalose is suitably used as an effective ingredient for a reduction inhibitory agent for active-oxygen eliminating activity.
In one milliliter of a 45 w/v % trehalose solution was dissolved five micrograms of superoxide dismutase from a horseradish-commercialized by Sigma Chemical Co., St. Louise, USA, 10 mg α-glucosyl hesperidin commercialized by Hayashibara Biochemical Laboratories, Inc., Okayama, Japan, 10 mg α-glucosyl rutin commercialized by Hayashibara Biochemical Laboratories, Inc., Okayama, Japan, 250 μg gallic acid commercialized by Wako Pure Chemical Industries, Ltd., Tokyo, Japan, or 50 μg catechin to obtain a liquid composition. Each of the compositions was placed in a glass test tube, sealed with a rubber cap, and stored under light-shielded conditions. As a control, water was used in place of the trehalose solution. […] Mere mixing of a powdery crystalline trehalose hydrate and either of the powdery antioxidants into a powdery mixture, almost no change of the active-oxygen eliminating activity was observed when subjected to storage test similarly as above.

Test [2] is described as follows: Influence of trehalose concentration on active-oxygen eliminating activity of powdery carrot composition before/after storage (NBT test). The following applies: for Activity (unit/g) After storage / Percentage of residual activity (%): 40° C. for seven days; for Activity (unit/g) Before storage: powdery carrot composition. How it is done:
as §1
Similarly as in Experiment 1, 0–20% of trehalose, d.s.b., was mixed with and dissolved in a disrupted carrot. The resulting each mixture was dried in vacuo at 40° C. for 24 hours, and pulverized into a powdery carrot composition. Similarly as in Experiment 1, each powdery composition was placed and sealed in a polystyrene container, and stored at 40° C. for seven days for evaluating the reduction inhibitory activity for active-oxygen eliminating activity. […] Based on the data from Table 2, at least of about one percent, preferably, at least of about five percent, and more preferably, at least of about 20% of trehalose, d.s.b., exerted a desired effective reducing inhibitory activity for active-oxygen eliminating activity.

Test [3] is described as follows: Influence of saccharides on active-oxygen eliminating activity of powdery carrot composition before/after storage (NBT test). The note with it: compared among the saccharides tested, 40° C. seven days. As for the experimental part:
Fresh raw carrots were disrupted by a mixer, and 10% of either of saccharides, d.s.b., was added to the mixture and dissolved therein. The solution was dried under reduced pressures at 40° C. for two days, dried in vacuo at the same temperature for 24 hours, and pulverized by a mixer into a powdery carrot composition. The saccharides used were commercialized reagents of glucose, mannitol, sorbitol, maltose, sucrose, trehalose, and pullulan. An about 100 g of the composition was placed and sealed in a 500-ml polystyrene container, and stored at 40° C. for seven days. The active-oxygen eliminating activity of the composition before and after the storage were compared. The assay for the active-oxygen eliminating activity followed the nitroblue tetrazolium test by Toshio IMANARI et at in Igakuno Ayumi, Vol. 101, pp. 496–497 (1977); the level of superoxide, formed in a xanthine-xanthine oxidase system, was assayed by quantifying calorimetrically the content of formazan formed by reducing NBT. As a control, refined water was used as a test solution. One unit activity of active-oxygen eliminating activity is defined as that inhibits 50% formazan formation as compared with the control. […]

Setting [4] is: trehalose 45%, stored 25° C. 20 hours.
[5] abbreviates: trehalose 0%, stored 80° C. 5 days.
[6] abbreviates: trehalose 45%, stored 80° C. 5 days.
[7] abbreviates: 0.1% trehalose added to carrot (content 1.0% d.s.b.).
Setting [8] is: 0.5% trehalose added to carrot (content 4.9% d.s.b.).
The mark [9] stands for this setting: 1.0% trehalose added to carrot (content 9.4% d.s.b.).
Where [10] appears, read: 2.5% trehalose added to carrot (content 20.7% d.s.b.).
Setting [11] is: 5.0% trehalose added to carrot (content 34.2% d.s.b.).
The mark [12] stands for this setting: 10.0% trehalose added to carrot (content 51.1% d.s.b.).
[13] abbreviates: 20.0% trehalose added to carrot (content 67.6% d.s.b.).

catechin: in test [1], the “Activity (unit/mg antioxidant) Before storage” value was found to be 380 unit/mg antioxidant. In test [1] (trehalose 0%, stored 25° C. 20 hours), the “Activity (unit/mg antioxidant) After storage” value was 2.2 unit/mg antioxidant. In test [1] (setting [4]), the “Residual activity (%)” value was determined as 82% and the “Activity (unit/mg antioxidant) After storage” value came out at 310 unit/mg antioxidant.

Take Superoxide dismutase: the “Activity (unit/mg antioxidant) Before storage” value in test [1] was 11,000 unit/mg antioxidant. Also, the “Activity (unit/mg antioxidant) After storage” value in test [1] (trehalose 0%, stored 60° C. 17 hours) is 4,600 unit/mg antioxidant; in test [1] (trehalose 45%, stored 60° C. 17 hours) it was 9,400 unit/mg antioxidant.

As to α-glucosyl rutin, the “Activity (unit/mg antioxidant) After storage” value in test [1] (setting [5]) turned out to be 18 unit/mg antioxidant; in test [1] (setting [6]), 22 unit/mg antioxidant.

As for `O=C(O)c1cc(O)c(O)c(O)c1` [Gallic acid, gallic acid], the “Activity (unit/mg antioxidant) Before storage” value in test [1] was 570 unit/mg antioxidant. In addition, the “Activity (unit/mg antioxidant) After storage” value in test [1] (setting [5]) is given as 390 unit/mg antioxidant. In addition, in test [1] (setting [6]), the “Residual activity (%)” value was 82% and the “Activity (unit/mg antioxidant) After storage” value was 470 unit/mg antioxidant.

For the molecule α-glucosyl hesperidin, the “Activity (unit/mg antioxidant) Before storage” value in test [1] is 3.6 unit/mg antioxidant. For the same molecule, the results for the “Activity (unit/mg antioxidant) After storage” value in test [1] (setting [5]) and in test [1] (setting [6]) were 1.0 unit/mg antioxidant and 2.4 unit/mg antioxidant, respectively. Further, the “Residual activity (%)” value in test [1] (setting [6]) came out at 67%.

Turning to `OC[C@H]1O[C@H](O[C@H]2O[C@H](CO)[C@@H](O)[C@H](O)[C@H]2O)[C@H](O)[C@@H](O)[C@@H]1O` [Trehalose, α,α-trehalose], the “Activity (unit/g) After storage” value in test [2] (setting [7]) amounted to 400 unit/g; in test [2] (setting [8]), 460 unit/g; in test [2] (setting [9]) it was 480 unit/g; in test [2] (setting [10]), 460 unit/g; in test [2] (setting [11]), 370 unit/g; in test [2] (setting [12]), 330 unit/g. The “Activity (unit/g) After storage” value in test [2] (setting [13]) turned out to be 240 unit/g. For the same molecule, the “Percentage of residual activity (%)” value in test [2] (setting [7]) is given as 43%; in test [2] (setting [8]), 61%; in test [2] (setting [9]) it was 56%; in test [2] (setting [11]), 62%; in test [2] (setting [12]), 83%; in test [2] (setting [13]), 63%. Also, the “Activity (unit/g) Before storage” value in test [2] (setting [7]) is on record as 930 unit/g; in test [2] (setting [8]), 750 unit/g; in test [2] (setting [9]) it was 860 unit/g; in test [2] (setting [10]) it was 700 unit/g; in test [2] (setting [11]), 600 unit/g; in test [2] (setting [12]), 400 unit/g. For the same molecule, the “Activity (unit/g) Before storage” value in test [2] (setting [13]) is 380 unit/g. The “reduction inhibitory activity for active-oxygen eliminating activity (in words)” value in test [3] is given as “strong effect”.

The record behind these values is patent US7186824B2, “Reduction inhibitory agent for active-oxygen eliminating activity” (Kabushiki Kaisha Hayashibara Seibutsu Kagaku Kenkyujo, priority 1997, dated 2007).
